Test results published in patent US20040175353A1, “Cyanoacrylate compositions for prophylactic or therapeutic treatment of diseases manifesting themselves in and/or damage cutaneous tissue” (priority 2001, published 2004).

Test system: HSV-I infection around the mouth
Test: Initial studies: HSV-I infection around the mouth treated with ethyl cyanoacrylate (Examples 1-3)
Assay type: in vivo, human
Experimental: Examples 1-3 are initial studies describing three patient groups at different stages of development of HSV-I infection around the mouth which has been treated with ethyl cyanoacrylate (LOCTITE 411, Henkel Loctite Adhesive Ltd.). The infected areas were applied about ⅓ drop of liquid ethyl cyanoacrylate by means of a toothpick and the polymerization was allowed to pass off.
Patient group 1 consisted of three patients without visible symptoms. The group was treated prophylactically as mentioned above under latent HSV-I infection, pronounced prickling and itching in the mucous membrane at the lip being the cause of the treatment.
Patient group 2 consisted of 2 patients with visible blisters in the corner of the mouth due to infection with HSV-I. The group was treated initially for 3 hours, after which the ethyl cyanoacrylate coat with content of virus and tissue was removed. The treatment was repeated 2 times for 24 hours, after which the coat was removed.
Patient group 3 consisted of 4 patients all having large suppurating crusts in a large area around the mouth. The group were initially treated by applying liquid ethyl cyanoacrylate which was allowed to polymerise. The polymer coat with adhering crust was removed immediately after polymerization, and the treatment repeated 4 times for 24 hours.

## C=C(C#N)C(=O)OCC [ethyl cyanoacrylate]
Patient group 1: three patients, latent HSV-I infection without visible symptoms, prophylactic treatment, coat removed after overnight
  development of visible blisters or wounds: no patients in Patient group 1 developed visible blisters or wounds
Patient group 2: 2 patients with visible blisters in corner of mouth, 3 hours, then repeated 2 times for 24 hours
  visible traces, symptoms and scar formation after treatment: no visible traces after the outbreak and both patients were free of symptoms without scar formation
Patient group 3, fourth patient, treated for further 24 hours
  symptoms and scar formation after treatment: subsequently had no symptoms or scar formation
Patient group 3: 4 patients with large suppurating crusts, crust pulled off, treatment repeated 4 times for 24 hours
  symptoms and scar formation after treatment: three patients had no symptoms or scar formation
